{"source": "patent US20120082626A1", "about": "“USE OF R-BAMBUTEROL AS INHALED MEDICAMENT AND COMBINATION THERAPIES FOR TREATMENT OF RESPIRATORY DISORDERS” (priority 2009, published 2012)", "key": {"[1]": {"system": "OVA evoked asthma in sensitized guinea pigs", "test": "Airway resistance and dynamic pulmonary compliance after inhalation in OVA sensitized guinea pigs", "type": "in vivo", "details": "for change of Raw and Cdyn at resting state after inhalation: before OVA challenge; for protection against asthma attack by antigen (OVA) challenge: pretreatment by inhalation about three minutes before OVA challenge", "protocol": "Sensitization of animals: Ovalbumin (10 μg/ml) was injected into guinea-pigs subcutaneously and coincidentally with an intraperitoneal injection of B. pertussis vaccine. Identical injection of ovalbumin and adjuvant were made day 15 and 21 days later. On day 28th the animals were examined and used for studies.\nTest Methods: The sensitized guinea pigs wer anaethetized. A cannula was inserted into the trachea. A plueral cannula was inserted into pleural space through the chest wall. Airway resistance (Raw) and dynamic pulmonary compliance (Cdyn) were measured by using the signals of intraplueral pressure, airflow and tidal volume.\nThe animals were restreined in closed chamber and nebulized R-bambuterol or S-bambuterol were inhaled at the dose of 126 μg/kg. After three minutes conditioning, the animals were then challenged with nebulized OVA to evoke asthma. Airway resistance (Raw) and dynamic pulmonary compliance (Cdyn) were measured before and after evoking asthma."}, "[2]": {"details": "oral; cited from earlier work"}}, "note": "Entries after “also recorded” stand apart in the source; their conditions may differ.", "data": [{"smiles": "CN(C)C(=O)Oc1cc(OC(=O)N(C)C)cc([C@@H](O)CNC(C)(C)C)c1", "note": "[R-bambuterol]", "values": [{"measurement": "change of Raw and Cdyn at resting state after inhalation", "setting": "[1]", "value": "reduced airway resistance and enhanced pulmonary dynamic compliance"}, {"measurement": "change of Raw and Cdyn at resting state after inhalation", "setting": "[1]; listed as R-Bambuterol", "value": "no significant changes both in Raw and Cdyn"}, {"measurement": "protection against asthma attack by antigen (OVA) challenge", "setting": "[1]", "value": "significant anti-asthma effects; also recorded: fully protection against the asthma attack"}, {"measurement": "protection against asthma attack by antigen (OVA) challenge", "setting": "[1]; listed as R-BM", "value": "full protection"}, {"measurement": "time of maximum concentration (tmax)", "setting": "[2]", "value": "around one"}]}]}
